Legend:
Format in all cases: in vivo
[1] = system: peach (variety "Akatsuki") fruit; test: Quality deterioration of peach (Akatsuki) fruit after storage, Example 9; settings: 1 ppm, after storage 25 degrees C 5 days, treated day after harvest
Description: Using a peach (variety “Akatsuki”) fruit (6 fruits were used per group) as an agricultural product, the following experiment was performed.
1) A fruit was placed into a sealed chamber, and a pressure in the chamber was reduced to 25.0 kPa. Subsequently, 1-methylcyclopropene was placed therein to the concentration in the chamber of 1 ppm, and contact-treated for 1 minute under the reduced pressure (25.0 kPa). Then, the pressure was returned to a normal pressure, and contact treatment was carried out for 12 hours while the concentration of 1-methylcyclopropene in the chamber was maintained at 1 ppm.
2) A fruit was placed into a sealed chamber, and a pressure in the chamber was reduced to 25.0 kPa. Subsequently, 1-methylcyclopropene was placed therein to the concentration in the chamber of 1 ppm, and contact-treated for 12 hours under the reduced pressure (25.0 kPa).
The fruit which had been subjected to treatment of the above-mentioned 1) or 2) was stored at 25 degrees C for 5 days, and hardness of flesh was measured. […] In addition, also regarding a fruit undergoing no treatment of 1) or 2) (non-treatment), similar storage was performed, and the above-mentioned index was measured. Further, regarding a non-treated fruit, the above-mentioned index before storage was also measured. […]

[2] = system: apple (variety "Sansa") fruit; test: Quality deterioration of apple (Sansa) fruit after storage, Example 5; settings: 1 ppm, after storage 25 degrees C 2 weeks
Description: Using an apple (variety “Sansa”) fruit (6 fruits were used per group) as an agricultural product, the following experiment was performed.
1) A fruit and 1-methylcyclopropene (concentration 1 ppm in a chamber) were placed into a sealed chamber, and contact-treated for 12 hours under a normal pressure.
(§1) 2) A fruit was placed into a sealed chamber, and a pressure in the chamber was reduced to 25.0 kPa. Subsequently, 1-methylcyclopropene was placed therein to the concentration in the chamber of 1 ppm, and contact-treated for 1 minute under the reduced pressure (25.0 kPa).
The fruit which had been subjected to treatment of the above-mentioned 1) or 2) was stored at 25 degrees C for 2 weeks, and hardness of flesh, pH of a fruit juice which is an index for the content of an acid, and the ethylene concentration in a fruit core were measured. Contact treatment of the above-mentioned 1) or 2) was performed on the following day of harvesting a fruit. In addition, also regarding a fruit undergoing no treatment of 1) or 2) (non-treatment), similar storage was performed, and the above-mentioned index was measured. Further, regarding non-treated fruit, the above-mentioned index before storage was also measured. Different alpha characters in Table 4 indicate that a significant difference was recognized at a risk rate of 5% (multiple range test of Newman-Keuls).

[3] = system: Japanese pear (variety "Shinsei") fruit; test: Quality deterioration of Japanese pear (Shinsei) fruit after storage, Example 1; settings: 1 ppm, after storage 25 degrees C 2 weeks
Description: Using a Japanese pear (variety “Shinsei”) fruit (6 fruits were used per group) as an agricultural product, the following experiment was preformed.
1) A fruit and 1-methylcyclopropene (concentration 1 ppm (parts per million) in a chamber) were placed into a sealed chamber (volume 30L, same in the following Examples), and contact-treated for 1 hour or 16 hours under a normal pressure.
2) A fruit was placed into a sealed chamber, and a pressure in the chamber was reduced to 12.5 kPa. Subsequently, 1-methylcyclopropene was placed therein to the concentration in the chamber of 1 ppm, and contact-treated for 30 minutes or 1 hour under the reduced pressure (12.5 kPa).
The fruit which had been subjected to treatment of above-mentioned 1) or 2) was stored at 25 degrees C for 2 weeks, and hardness of flesh and pH of a fruit juice which is an index for the content of an acid were measured. In addition, browning of flesh and fruit core, which is an index for an extent of storage disorder was assessed by naked eyes. Contact treatment of the above-mentioned 1) or 2) was performed on a day of harvesting a fruit. In addition, also regarding a fruit undergoing no treatment of 1) or 2) (non-treatment), similar storage was performed, and the above-mentioned index was measured and assessed. Further, regarding non-treated fruit, the above-mentioned index before storage was also measured and assessed. Different alpha characters in Table indicate that a significant difference was recognized at a risk rate of 5% (multiple range test of Newman-Keuls). In Tables showing the results of the following Examples 1 to 10, “1-MCP” denotes 1-methylcyclopropene.

[4] = system: peach (variety "Yuzora") fruit; test: Quality deterioration of peach (Yuzora) fruit after storage, Example 7; settings: 1 ppm, after storage 25 degrees C 9 days
Description: Using a peach (variety “Yuzora”) fruit (6 fruits were used per group) as an agricultural product, the following experiment was performed.
1) A fruit and 1-methylcyclopropene (concentration 1 ppm in a chamber) were placed into a sealed chamber, and contact-treated for 24 hours under a normal pressure.
as §1
The fruit which had been subjected to treatment of the above-mentioned 1) or 2) was stored at 25 degrees C for 9 days, and hardness of flesh and was measured. In addition, contact treatment of the above-mentioned 1) or 2) was performed on the next day from harvesting of fruit. In addition, also regarding a fruit undergoing no treatment of 1) or 2) (non-treatment), similar storage was performed, and the above-mentioned index was measured. Further, regarding non-treated fruit, the above-mentioned index before storage was also measured.

[5] = Reduced pressure (25.0 kPa) 1 minute
[6] = Reduced pressure (12.5 kPa) 30 minutes
[7] = Reduced pressure (12.5 kPa) 1 hour

## CC1=CC1 [1-MCP, 1-methylcyclopropene]
[1]; Normal pressure 12 hours after reduced pressure (25.0 kPa) 1 minute
  Hardness of flesh: 4.39a N
[1]; Reduced pressure (25.0 kPa) 12 hours
  Hardness of flesh: 7.11b N
[2]; Normal pressure 12 hours
  Ethylene concentration in fruit core: 1.86a μL/L
  Hardness of flesh: 61.05b N
  pH of fruit juice: 3.38a
[2]; [5]
  Ethylene concentration in fruit core: 0.97a μL/L
  Hardness of flesh: 63.21b N
  pH of fruit juice: 3.40a
[3]; Normal pressure 1 hour
  Hardness of flesh: 16.46a N
  Presence or absence of browning: Presence
  pH of fruit juice: 5.07
[3]; Normal pressure 16 hours
  Hardness of flesh: 21.17b N
  Presence or absence of browning: Absence
  pH of fruit juice: 5.07
[3]; [6]
  Hardness of flesh: 20.58b N
  Presence or absence of browning: Slight
  pH of fruit juice: 5.10
[3]; [7]
  Hardness of flesh: 20.97b N
  Presence or absence of browning: Absence
  pH of fruit juice: 4.97
[4]; Normal pressure 24 hours
  Hardness of flesh: 4.38 N
[4]; [5]
  Hardness of flesh: 4.24 N

Source: patent publication US20040192554A1, “Technique for effectively treating an agricultural product with a 1-substituted-cyclopropene” (priority 2003, published 2004)
